Measured values from patent US9650384B2, “Substituted pyrimidine compounds and methods of use and manufacture” (Duquesne University of the Holy Spirit, priority 2014, dated 2017).
Read-outs that look alike come from different tables or passages of the source.

How the values were obtained:
[1] = system: CHO subline engineered to express human RFC (PC43-10); experiment: Growth inhibition assay, CHO subline PC43-10 expressing human RFC; type: cell-based
[2] = system: CHO subline engineered to express human FRα (RT16); experiment: Growth inhibition assay, CHO subline RT16 expressing FRα; type: cell-based; conditions: read-out: IC50 RT16, FR
[3] = target: T1, GARFTase (Homo sapiens, UniProt P22102); conditions: reported in reference 1; cited from earlier work
T1 sequence (P22102 1-1010): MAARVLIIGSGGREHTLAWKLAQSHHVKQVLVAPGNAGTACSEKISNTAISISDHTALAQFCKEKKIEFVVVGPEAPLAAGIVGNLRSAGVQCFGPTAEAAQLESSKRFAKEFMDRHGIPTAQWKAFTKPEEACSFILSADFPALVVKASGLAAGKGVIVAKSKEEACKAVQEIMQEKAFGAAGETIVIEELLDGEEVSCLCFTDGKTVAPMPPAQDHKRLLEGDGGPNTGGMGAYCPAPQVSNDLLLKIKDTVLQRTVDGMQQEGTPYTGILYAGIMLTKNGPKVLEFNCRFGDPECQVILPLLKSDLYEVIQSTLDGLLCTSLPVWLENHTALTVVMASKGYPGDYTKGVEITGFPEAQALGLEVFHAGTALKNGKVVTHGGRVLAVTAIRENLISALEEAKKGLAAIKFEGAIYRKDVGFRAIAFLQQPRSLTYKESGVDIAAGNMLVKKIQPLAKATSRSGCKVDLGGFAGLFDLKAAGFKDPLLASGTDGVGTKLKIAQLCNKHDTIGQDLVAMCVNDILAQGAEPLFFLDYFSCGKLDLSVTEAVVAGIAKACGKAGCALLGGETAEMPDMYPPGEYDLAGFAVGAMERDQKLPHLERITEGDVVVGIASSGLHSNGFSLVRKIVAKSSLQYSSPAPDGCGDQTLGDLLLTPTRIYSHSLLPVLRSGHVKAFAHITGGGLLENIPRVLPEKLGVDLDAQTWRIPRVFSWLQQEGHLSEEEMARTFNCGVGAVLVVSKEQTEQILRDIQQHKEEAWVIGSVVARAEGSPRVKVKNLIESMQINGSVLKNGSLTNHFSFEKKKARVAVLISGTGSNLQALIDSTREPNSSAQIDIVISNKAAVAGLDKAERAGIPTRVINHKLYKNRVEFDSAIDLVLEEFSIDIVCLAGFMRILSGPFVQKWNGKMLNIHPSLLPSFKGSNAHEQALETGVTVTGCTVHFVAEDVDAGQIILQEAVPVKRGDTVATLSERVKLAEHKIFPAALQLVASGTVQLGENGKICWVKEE

[4] = system: KB human tumor subline (expressing RFC, FRα, and PCFT); experiment: Growth inhibition assay, KB human tumor subline; type: cell-based
[5] = target: AICARFTase (Homo sapiens, UniProt P31939); conditions: reported in reference 1; cited from earlier work
Sequence of AICARFTase (P31939 whole entry): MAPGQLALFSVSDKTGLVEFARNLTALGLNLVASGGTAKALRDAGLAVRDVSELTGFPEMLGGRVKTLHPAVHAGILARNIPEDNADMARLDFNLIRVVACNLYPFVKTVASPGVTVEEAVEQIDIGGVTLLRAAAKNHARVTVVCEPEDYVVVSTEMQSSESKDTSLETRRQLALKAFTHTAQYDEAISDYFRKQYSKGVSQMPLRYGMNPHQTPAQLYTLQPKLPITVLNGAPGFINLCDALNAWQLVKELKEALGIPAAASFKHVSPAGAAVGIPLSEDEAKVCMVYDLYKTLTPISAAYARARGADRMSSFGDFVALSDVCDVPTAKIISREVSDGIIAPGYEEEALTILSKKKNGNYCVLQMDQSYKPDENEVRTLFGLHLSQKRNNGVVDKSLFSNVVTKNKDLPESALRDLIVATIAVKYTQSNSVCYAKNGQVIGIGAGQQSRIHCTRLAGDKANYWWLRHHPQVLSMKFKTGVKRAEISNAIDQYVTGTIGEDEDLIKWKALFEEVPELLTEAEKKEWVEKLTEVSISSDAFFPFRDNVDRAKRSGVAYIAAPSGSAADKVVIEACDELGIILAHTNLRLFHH

[6] = system: CHO subline engineered to express human PCFT (R2/PCFT4); experiment: Growth inhibition assay, CHO subline R2/PCFT4 expressing PCFT; type: cell-based; conditions: R2/PCFT4 cells
[7] = system: transporter-null (R2) CHO cells; experiment: Growth inhibition assay, transporter-null R2 CHO cells; type: cell-based; conditions: Cricetulus griseus, Table 1, mean of 3 to 10 experiments
[8] = Table 1, growth inhibition by 50% relative to cells without drug, mean of 3 to 10 experiments

Structure (SMILES) | IC50 ([4]; Table 2) [nM] | IC50 [1, 8] [nM] | IC50 ([1]; Table 2) [nM] | IC50 [2, 8] [nM] | IC50 ([2]; Table 2) [nM] | inhibition of GARFTase [3] | IC50 [4, 8] [nM] | inhibition of AICARFTase [5] | IC50 ([6]; Table 1, mean of 3 to 10 experiments) [nM] | IC50 ([6]; Table 2) [nM] | IC50 [7] [nM]
Nc1nc2[nH]cc(CCCCc3ccc(C(=O)N[C@@H](CCC(=O)O)C(=O)O)cc3)c2c(=O)[nH]1 [Compound 3] | 12.7 | 56.6 | 56.6 | 8.6 | 8.6 | inhibited | 12.7 | inhibited | 840 | 840 | –
Nc1nc2[nH]cc(CCCCc3cccc(C(=O)N[C@@H](CCC(=O)O)C(=O)O)c3)c2c(=O)[nH]1 [Compound 11] | > 1000 | – | 608 | – | > 1000 | – | – | – | – | > 1000 | –
Nc1nc2[nH]cc(CCc3ccc(C(=O)N[C@@H](CCC(=O)O)C(=O)O)cc3)c2c(=O)[nH]1 [PMX, Pemetrexed] | 9.94 | – | 30.6 | – | – | – | – | – | – | – | > 1000

Continued, in another order:

IC50 ([4]; Table 2) [nM] | Structure (SMILES) | IC50 [1, 8] [nM] | IC50 ([1]; Table 2) [nM] | IC50 [2, 8] [nM] | IC50 ([2]; Table 2) [nM] | inhibition of GARFTase [3] | IC50 [4, 8] [nM] | inhibition of AICARFTase [5] | IC50 ([6]; Table 1, mean of 3 to 10 experiments) [nM] | IC50 ([6]; Table 2) [nM] | IC50 [7] [nM]
51 | Nc1nc2[nH]cc(CCCOc3ccc(C(=O)N[C@@H](CCC(=O)O)C(=O)O)cc3)c2c(=O)[nH]1 [Compound 9] | – | 53.2 | – | 42.2 | – | – | – | – | 390 | –
> 1000 | Nc1nc2[nH]cc(CCCSc3ccc(C(=O)N[C@@H](CCC(=O)O)C(=O)O)cc3)c2c(=O)[nH]1 [Compound 10] | – | > 1000 | – | 281 | – | – | – | – | 549 | –
